Source: US11701377B2, “Methods for treating cancers by prodrugs of clofarabine” (priority 2016, dated 2023)

Experiments:
[1] = test system: human K562 chronic myelogenous leukemia cell line; test: In Vitro Anti-proliferative Assay Using Human K562 Leukemia Cell Line; assay type: cell-based; conditions: K562 cells, 72 hours, 37° C., 5% CO2, triplicates, cell viability
Protocol: Method H: In Vitro Anti-proliferative Assay Using Human K562 Leukemia Cell Line. A representative compound (Example 1, Compound 3) was assessed for its anti-proliferative activity against human K562 chronic myelogenous leukemia cell line at various concentrations ranging from 10 μM to 0.005 μM in triplicates. Incubations were carried out at 37° C., 5% CO2, under humidified atmosphere for 72 hours. After incubation, cell viability was examined.

[2] = In Vitro Metabolic Conversion Assay Using Human Plasma; assay type: in vitro ADME; conditions: incubation with human plasma at 15 µg/mL, 37° C., 60 minutes, HPLC
Protocol: Method F: In Vitro Metabolic Conversion Assay Using Human Plasma. A representative compound (Example 1, Compound 3) was incubated with human plasma at 15 µg/mL. Incubations were carried out at 37° C. in a shaker water bath. Samples were taken at 0, 10, 30 and 60 minutes, quenched with 25 μL of trifluoroacetic acid, and then centrifuged at 25,000 g for 3 minutes at 4° C. The supernatant of each sample was collected and analyzed using HPLC to monitor the formation of clofarabine. FIG. 1 illustrates the results for incubations performed at 37° C.

IC50 [1]: 0.324 ± 0.018 µM
Structure (SMILES): CCOC(=O)OC[C@H]1O[C@@H](n2cnc3c(N)nc(Cl)nc32)[C@@H](F)[C@@H]1O [Compound 3, (2R,3R,4S,5R)-5-(6-Amino-2-chloropurin-9-yl)-2-(ethoxycarbonyloxymethyl)-4-fluoro-oxolan-3-ol]
metabolic conversion in human plasma (depletion of prodrug, formation of clofarabine) [2]: depletion of 3 was observed along with the formation of clofarabine as its metabolite
